# ChEMBL document CHEMBL2401631, “Small molecules inhibit the interaction of Nrf2 and the Keap1 Kelch domain through a non-covalent mechanism” (Bioorg Med Chem, 2013)
# Active and inactive are the calls of the source. No cut-off for these calls is given here.
# How the values were obtained:
# Assay type in all cases: cell-based
# [1] = target: T1, Nuclear factor erythroid 2-related factor 2 (Homo sapiens) (UniProt Q16236); assay: Activation of Nrf2 in human DLD1 cells assessed as increase of NQO1 protein level at 20 uM after 48 hrs by Western blot analysis; details: DLD-1
# T1 sequence (whole entry): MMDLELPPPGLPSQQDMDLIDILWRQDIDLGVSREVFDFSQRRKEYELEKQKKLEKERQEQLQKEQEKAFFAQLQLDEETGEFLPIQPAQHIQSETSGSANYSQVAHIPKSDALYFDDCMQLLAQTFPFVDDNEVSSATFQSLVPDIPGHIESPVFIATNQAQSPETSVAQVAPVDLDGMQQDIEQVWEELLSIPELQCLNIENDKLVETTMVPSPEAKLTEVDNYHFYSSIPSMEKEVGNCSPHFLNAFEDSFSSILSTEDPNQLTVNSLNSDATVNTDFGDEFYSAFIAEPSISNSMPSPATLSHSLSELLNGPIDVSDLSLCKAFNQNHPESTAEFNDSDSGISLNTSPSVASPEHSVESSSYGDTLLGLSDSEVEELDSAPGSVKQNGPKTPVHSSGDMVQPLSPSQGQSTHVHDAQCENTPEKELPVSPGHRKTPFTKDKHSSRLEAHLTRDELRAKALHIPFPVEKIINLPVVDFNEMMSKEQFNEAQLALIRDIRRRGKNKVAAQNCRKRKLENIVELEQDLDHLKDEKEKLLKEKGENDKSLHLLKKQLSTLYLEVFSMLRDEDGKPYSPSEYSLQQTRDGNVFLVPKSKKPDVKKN
# [2] = target: T1, Nuclear factor erythroid 2-related factor 2 (Homo sapiens); assay: Activation of Nrf2 in human DLD1 cells assessed as stabilization of Nrf2 protein at 20 uM after 48 hrs by Western blot analysis; details: DLD-1
# [3] = target: Kelch-like ECH-associated protein 1 (Homo sapiens) (UniProt Q14145); assay: Binding affinity to human recombinant Kelch-DC domain of Keap1 (321 to 609) expressed in HEK293T cells assessed as covalent adduct formation with cysteines at 1 mM after 15 hrs by 2D-FIDA assay; details: HEK-293T
# [4] = target: T1, Nuclear factor erythroid 2-related factor 2 (Homo sapiens); assay: Activation of Nrf2 in human DLD1 cells after 24 to 48 hrs by luciferase reporter gene assay; details: DLD-1
# Kelch-like ECH-associated protein 1 (Homo sapiens), sequence (Q14145 whole entry, the tested form may be a part): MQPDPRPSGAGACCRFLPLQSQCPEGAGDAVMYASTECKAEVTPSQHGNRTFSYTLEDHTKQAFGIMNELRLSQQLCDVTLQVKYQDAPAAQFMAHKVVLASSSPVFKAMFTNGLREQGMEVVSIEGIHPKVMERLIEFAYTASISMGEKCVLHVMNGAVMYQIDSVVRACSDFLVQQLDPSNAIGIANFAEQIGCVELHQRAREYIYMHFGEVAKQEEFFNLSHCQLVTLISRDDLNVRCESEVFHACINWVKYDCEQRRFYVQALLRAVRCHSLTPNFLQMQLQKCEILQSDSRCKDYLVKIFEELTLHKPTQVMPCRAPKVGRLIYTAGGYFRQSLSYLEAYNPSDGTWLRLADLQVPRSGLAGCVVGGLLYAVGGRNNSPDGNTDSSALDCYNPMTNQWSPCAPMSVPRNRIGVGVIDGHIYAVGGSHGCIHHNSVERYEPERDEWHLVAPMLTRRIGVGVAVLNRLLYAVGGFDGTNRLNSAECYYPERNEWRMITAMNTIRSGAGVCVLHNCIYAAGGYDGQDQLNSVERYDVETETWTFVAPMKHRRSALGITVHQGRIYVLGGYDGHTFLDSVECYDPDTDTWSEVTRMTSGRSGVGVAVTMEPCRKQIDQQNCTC
Compound,Activity [1],Activity [2],Activity [3],Activity [4]
COC(=O)/C=C/C(=O)OC,Active,Active,Active,Dose-dependent effect
COC(=O)/C=C/C(=O)O,,,,Dose-dependent effect
COc1ccc(S(=O)(=O)Nc2ccc(NS(=O)(=O)c3ccc(OC)cc3)c3ccccc23)cc1,Active,Active,inactive,Dose-dependent effect
